According to patent US8283322B2, “Formulations for nonsurgical exogenous crosslink therapy” (Orthopeutics, LP, priority 2008, dated 2012):
Entries after “also recorded” stand apart in the source; their conditions may differ. Values belong to the molecule of their own block, whether it stands above or below them.

Legend:
[1] = at 20° C.; cited from earlier work
[2] = in water; proposed values; cited from earlier work
[3] = system: homogenized annulus tissue; conditions: bovine
Protocol: (§1) Increasing concentrations of protein crosslinkers were added to homogenized annulus tissue and incubated for either 1 hr (EDC, GP, MG, PA and GA), 2 hrs (TG) or 6 hrs (DT and LT). Crosslinking was quantified by determining the amount of hydroxyproline (HYP) released from the tissue by collagenase digestion.
(§2) Homogenized annulus tissue was treated with sub-saturating concentrations of various crosslinkers at varying pH and incubated for either 1 hr (EDC, GP, MG, PA and GA), 2 hrs (TG) or 6 hrs (LT). Crosslinking was quantified by determining the amount of hydroxyproline (HYP) released from the tissue by collagenase digestion.
(§3) In order to determine the effective concentration range for various crosslinking reagents we incubated samples of annulus tissue in increasing concentrations of either genipin (GP), methylglyoxal (MG), proanthrocyanidin (PA), L-threose (LT), D-threose (DT), dimethylaminopropyl) carbodiimide hydrochloride (EDC) or transglutaminase (TG). Crosslinking efficiency was measured indirectly by monitoring the release of peptides containing hydroxyproline upon subsequent digestion with collagenase. Glutaraldehyde (GA), a commonly used, but highly toxic protein crosslinker was used as a positive control.
(§4) To test this hypothesis, the inventors subjected calf annulus fibrosus tissue to crosslinking with sub-saturating levels of our reagents at varying pH. In order to maintain optimal buffering capacity at each pH, different buffers were selected for each point.

[4] = system: homogenized annulus tissue; assay: Crosslinking of annulus tissue quantified by hydroxyproline release upon collagenase digestion; conditions: for effect of buffer (EPPS vs Tris) on crosslinking: 100 mM EPPS or 100 mM Tris, GP at pH 9; for concentration at which crosslinking was complete / a plateau was reached: FIG. 1, 1 hr (MG), 6 hrs (DT and LT); for pH: optimized pH for crosslinking; for pH dependence of crosslinking: sub-saturating crosslinker, pH 4-9 with a different buffer at each pH (FIG. 2, FIG. 3); for effect of phosphate on crosslinking: Tris buffer pH 8, increasing concentrations of sodium phosphate
Protocol: as §1, §2, §3, §4

[5] = saturating crosslinker concentration, Table 5
[6] = sub-saturating MG, 100 mM MOPS pH 7

Molecule: tris(hydroxymethyl)aminomethane
pKa [1]: 8.3

Molecule: CCN=C=NCCCN(C)C.Cl [EDC, 1-ethyl-3-[3-dimethylaminopropyl]carbodiimide hydrochloride]
pH ([4]; Table 5): 6 | [Saturating] [4, 5]: 2.5 to 5 mM | pH dependence of crosslinking [4]: required a relatively narrow pH range

Molecule: CC(=O)C=O [Methylglyoxal, methylglyoxal]
max solubility [2]: about 6 M | T1/2 [3]: 14 to 20 min | enhancement of crosslinking by phosphate ([4]; 100 mM EPPS pH 8, 100 mM potassium phosphate, p=0.1): approximately 3 fold | concentration at which crosslinking was complete / a plateau was reached [4]: 50 mM | effect of phosphate on crosslinking [4]: enhance disc tissue crosslinking in a dose-dependent manner | [Saturating] ([4]; at pH 7): 30 to 50 mM | [Saturating] ([4]; at pH 8 (100 mM EPPS buffer), listed as MG): 10 mM | pH ([4]; Table 5): 8-9 | borohydride concentration at which the crosslinking reaction was enhanced [4, 6]: 1 to 5 mM | effect of 10 mM borohydride on crosslinking [4, 6]: inhibitory | borohydride concentration at which enhancement was observed ([4]; sub-saturating MG, EPPS buffer pH 8.0): below 1.5 mM | activity in EPPS when compared to Tris ([4]; sub-saturating MG, pH 8, 100 mM buffer, p<0.0001, n=10): ~2 fold | pH dependence of crosslinking ([4]; listed as MG): function better in disc tissue at the higher pH levels; also recorded: equally efficient at pH 8 and 9; also recorded: marked increase in its crosslinking ability at pH 8 compared to pH 7

Molecule: O=C[C@@H](O)[C@H](O)CO [D-Threose, D-threose]
concentration at which crosslinking was complete / a plateau was reached [4]: approximately 50 mM | [Saturating] [4, 5]: 50 mM

Further lines, with some results ahead:

T1/2 [3]: 150 min | effect of buffer (EPPS vs Tris) on crosslinking [4]: did not see any difference
Molecule: O=C[C@H](O)[C@@H](O)CO [L-Threose, L-threose]
max solubility [2]: comparable to MG | concentration at which crosslinking was complete / a plateau was reached [4]: approximately 50 mM | pH ([4]; Table 5): 8-9 | [Saturating] [4, 5]: 50 mM | pH dependence of crosslinking [4]: function better in disc tissue at the higher pH levels

T1/2 [3]: <5 min | effect of buffer (EPPS vs Tris) on crosslinking [4]: did not see any difference | effect of phosphate on crosslinking [4]: did not have any substantial | pH ([4]; Table 5): 5-9 | [Saturating] [4, 5]: 0.1% | pH dependence of crosslinking [4]: relatively insensitive to pH
Molecule: proanthrocyanidin

T1/2 [3]: <5 min
Molecule: O=CCCCC=O [Glutaraldehyde, reference compound]
pH ([4]; Table 5): 8-9 | [Saturating] [4, 5]: 1 to 2 mM

[Saturating] ([4]; 2 hrs incubation, highest concentration tested 2 U/ml): >2 U/ml | [Saturating] ([4]; 2 hrs incubation, highest concentration tested 2 U/ml, listed as TG): > 2 U/ml | pH ([4]; Table 5): 7-8 | pH dependence of crosslinking [4]: required a relatively narrow pH range
B1: transglutaminase (protein, UniProt P21980 2-687, looked up)
Protein-glutamine …: AEELVLERCDLELETNGRDHHTADLCREKLVVRRGQPFWLTLHFEGRNYEASVDSLTFSVVTGPAPSQEAGTKARFPLRDAVEEGDWTATVVDQQDCTLSLQLTTPANAPIGLYRLSLEASTGYQGSSFVLGHFILLFNAWCPADAVYLDSEEERQEYVLTQQGFIYQGSAKFIKNIPWNFGQFEDGILDICLILLDVNPKFLKNAGRDCSRRSSPVYVGRVVSGMVNCNDDQGVLLGRWDNNYGDGVSPMSWIGSVDILRRWKNHGCQRVKYGQCWVFAAVACTVLRCLGIPTRVVTNYNSAHDQNSNLLIEYFRNEFGEIQGDKSEMIWNFHCWVESWMTRPDLQPGYEGWQALDPTPQEKSEGTYCCGPVPVRAIKEGDLSTKYDAPFVFAEVNADVVDWIQQDDGSVHKSINRSLIVGLKISTKSVGRDEREDITHTYKYPEGSSEEREAFTRANHLNKLAEKEETGMAMRIRVGQSMNMGSDFDVFAHITNNTAEEYVCRLLLCARTVSYNGILGPECGTKYLLNLNLEPFSEKSVPLCILYEKYRDCLTESNLIKVRALLVEPVINSYLLAERDLYLENPEIKIRILGEPKQKRKLVAEVSLQNPLPVALEGCTFTVEGAGLTEEQKTVEIPDPVEAGEEVKVRMDLLPLHMGLHKLVVNFESDKLKAVKGFRNVIIGPA
